One experiment deals with T1, Type-B CCK receptors (Cavia porcellus, UniProt H0VZC5).
T1 construct: Cortical and pancreatic membranes were prepared as described; from tissue; host or cells: guinea pig cerebral cortex membranes
T1 sequence (H0VZC5 1-426): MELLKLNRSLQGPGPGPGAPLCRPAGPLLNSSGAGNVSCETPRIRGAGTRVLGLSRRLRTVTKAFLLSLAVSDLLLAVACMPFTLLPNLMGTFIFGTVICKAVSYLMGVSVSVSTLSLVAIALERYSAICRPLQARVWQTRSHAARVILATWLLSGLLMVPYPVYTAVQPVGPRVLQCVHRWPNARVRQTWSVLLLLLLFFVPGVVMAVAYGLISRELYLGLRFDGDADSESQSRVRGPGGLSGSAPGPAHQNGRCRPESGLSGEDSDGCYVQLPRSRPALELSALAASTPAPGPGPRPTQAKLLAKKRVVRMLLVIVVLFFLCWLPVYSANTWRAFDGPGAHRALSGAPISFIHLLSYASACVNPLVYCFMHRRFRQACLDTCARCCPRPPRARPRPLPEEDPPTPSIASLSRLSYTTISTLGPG
Nature of the experiment: Radioligand binding ([125I]BH-CCK-8) in guinea pig cerebral cortical membrane preparations. The note with it: cortical membranes, 30° C., 150 minutes, read-out: IC50 (nM) cortex (Type B). Here is the method: CCK-8 (Asp-Tyr(SO3 H)-Met-Gly-Trp-Met-Asp-Phe-NH2), bestatin and phosphoramidon were purchased from Peptide International (Louisville, Ky.). EGTA, HEPES, BSA were purchased from Sigma Chemical Co. (St. Louis, Mo.). […] Male guinea pigs, 250 to 325 g, were obtained from Scientific Small Animal Laboratory and Farm (Arlington Heights, Ill.). Collagenase, code CLSPA, was purchased from Worthington (Frehold, N.J.).
Cortical and pancreatic membranes were prepared as described (Lin and Miller; J. Pharmacol. Exp. Ther., 1985, 232:775-780). In brief, pancreas and cortex were removed and rinsed with ice-cold saline. Visible fat and connective tissues were removed from the pancreas. Tissues were weighed and homogenized in approximately 25 mL of ice-cold 50 mM Tris-HCl buffer, pH 7.4 at 4° C. with a Brinkman Polytron for 30 seconds, setting 7. The homogenates were centrifuged for 10 minutes at 1075×g and the pellet was discarded. The supernantants were saved and centrifuged at 38,730×g for 20 minutes. The resultant pellets were rehomogenized in 25 mL of 50 mM Tris-HCl buffer with a Teflon-glass homogenizer, 5 up and down strokes. The homogenates were centrifuged again at 38,730×g for 20 minutes. The pellets were then resuspended in 20 mM HEPES, containing 1 mM EGTA, 118 mM NaCl, 4.7 mM KCl, 5 mM MgCl2, 100 μ M bestatin, 3 μM phosphoramidon, pH 7.4 at 22° C. with a Teflon-glass homogenizer, 15 up and down strokes. The resuspension volume used for the cortex was 15 mL per g of original wet weight and 60 mL per g for pancreas.
To 1 mL Skatron polystyrene tubes were added 25 uL of test compounds, 25 uL of [^125 I]BH-CCK8 and 200 uL of membrane suspension. The final BSA concentration was 0.1%. The cortical tissues (source of Type-B CCK receptors) were incubated at 30° C. for 150 minutes and pancreatic tissues (source of Type-A CCK receptors) were incubated at 37° C. for 150 minutes. Incubations were terminated by filtration using a Skatron Cell Harvester and SS32 microfiber filter mats. […] IC50 values were determined from the Hill analysis.

A further experiment addresses T2, Type-A CCK receptors (Cavia porcellus, UniProt Q63931).
T2 construct: Cortical and pancreatic membranes were prepared as described; from tissue; host or cells: guinea pig pancreas membranes
T2 sequence (Q63931 1-430): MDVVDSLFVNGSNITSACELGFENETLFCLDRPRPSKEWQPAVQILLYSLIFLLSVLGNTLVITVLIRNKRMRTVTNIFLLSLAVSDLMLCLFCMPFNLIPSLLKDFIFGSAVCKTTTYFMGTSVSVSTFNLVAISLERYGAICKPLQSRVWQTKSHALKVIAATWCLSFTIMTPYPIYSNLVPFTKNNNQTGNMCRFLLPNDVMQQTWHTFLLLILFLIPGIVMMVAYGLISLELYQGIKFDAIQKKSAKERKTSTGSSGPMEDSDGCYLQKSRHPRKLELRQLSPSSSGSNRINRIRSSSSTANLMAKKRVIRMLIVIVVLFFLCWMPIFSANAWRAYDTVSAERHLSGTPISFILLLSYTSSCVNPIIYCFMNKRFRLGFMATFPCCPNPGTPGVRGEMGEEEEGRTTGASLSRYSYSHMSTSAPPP
Kind of experiment: Radioligand binding ([125I]BH-CCK-8) in guinea pig pancreatic membrane preparations. The note with it: pancreatic membranes, 37° C., 150 minutes, read-out: IC50 (nM) Pancreas (Type A).

This passage reports IC50 results from patent US5340802A, “Peptide analog type-B CCK receptor ligands” (Abbott Laboratories, priority 1993, dated 1994).

In general, IC50 refers to the concentration that gives 50% inhibition.

For `CC(C)C[C@H](NC(=O)[C@@H]1Cc2c[nH]c3cccc(c23)CC(=O)N1)C(=O)N[C@@H](CC(=O)O)C(=O)N/C(=C\c1ccccc1)C(N)=O` [Example 14, Ctp-Leu-Asp-(dehydro)Phe-NH2], the IC50 on Type-B CCK receptors is 16 nM; at Type-A CCK receptors, greater than 10000 nM.
On the same counts, the results for `CCC[C@@H]1CCN(C(=O)[C@@H]2Cc3c[nH]c4cccc(c34)CC(=O)N2)[C@@H]1C(=O)N[C@@H](CC(=O)O)C(=O)N[C@@H](Cc1ccccc1)C(N)=O` [Example 35, Ctp-Cpp-Asp-Phe-NH2] are 18 nM and 4770 nM.
With `NC(=O)[C@H](Cc1ccccc1)NC(=O)[C@H](CC(=O)O)NC(=O)[C@@H]1CSCCN1C(=O)[C@@H]1Cc2c[nH]c3cccc(c23)CC(=O)N1` [Example 42, Ctp-(1,4-thiazane-3-carbonyl)-Asp-Phe-NH2], the IC50 was 8.4 nM at Type-B CCK receptors and 1300 nM at Type-A CCK receptors.
As for `NC(=O)[C@H](Cc1ccccc1)NC(=O)[C@H](CC(=O)O)NC(=O)[C@@H]1CCCCN1C(=O)[C@@H]1Cc2c[nH]c3cccc(c23)CC(=O)N1` [Example 43, Ctp-Pip-Asp-Phe-NH2], the figures for the IC50 on Type-B CCK receptors and on Type-A CCK receptors were 29.9 nM and 11500 nM, respectively.
